# Reference: publication PMC7419507, “In vitro Cas9-assisted editing of modular polyketide synthase genes to produce desired natural product derivatives” (Nature Communications, 2020)
# Several values for one entry are separate records, joined by “and”; a condition that tells them apart may be missing. Equal entries are not always repeated.
# How the values were obtained:
# [1] = system: human ovarian adenocarcinoma SKOV-3 cells; assay: Cytotoxicity assay (CellTiter-Glo, 72 h), SKOV-3; assay type: cell-based; conditions: raw replicate data
# In short: (§1)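 Viability read by CellTiter-Glo luminescence after 72 h exposure to 2-fold compound dilutions (0.5% DMSO), added 4 h after plating 1000 cells/well.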
# [2] = Cytotoxicity assay (CellTiter-Glo, 72 h), SKOV-3; assay type: cell-based, human; conditions: human
# In short: as §1
# FKBP12 and mTOR = biological target: T1, FKBP12 and mTOR (Homo sapiens, UniProt P42345+P62942); assay: Fluoppi analysis: induction of FKBP12-mTOR complex formation in transfected HeLa cells; assay type: cell-based; conditions: for Foci intensity: raw data, one replicate per line
# T1 construct: host or cells: HeLa cells
# T1 sequence (P42345 2025-2114 limits assumed): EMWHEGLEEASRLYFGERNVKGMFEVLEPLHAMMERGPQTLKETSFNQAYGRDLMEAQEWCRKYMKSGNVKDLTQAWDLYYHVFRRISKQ
# T1 sequence (P62942 whole entry): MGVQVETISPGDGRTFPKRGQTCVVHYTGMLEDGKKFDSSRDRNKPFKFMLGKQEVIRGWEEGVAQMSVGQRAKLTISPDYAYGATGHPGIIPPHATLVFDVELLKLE
# In short: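 HeLa cells co-transfected with phAG-mTOR and pAsh-FKBP12, seeded 3000 cells/well, then compound-treated 1 h after 24 h at 37 °C. Fixed, Hoechst-stained, imaged by high-content microscopy; foci fluorescence normalized to total cell fluorescence, EC50 computed.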
# [3] = Cytotoxicity assay (CellTiter-Glo, 72 h), Jurkat; assay type: cell-based; conditions: human, Jurkat cells (T lymphoma)
# In short: as §1
# T lymphoma Jurkat cells = assay: Cytotoxicity assay (CellTiter-Glo, 72 h), Jurkat; assay type: cell-based; conditions: raw data (replicates)
# In short: as §1
structure (smiles),measurement,setting,value
"COC1CC2CCC(C)C(O)(O2)C(=O)C(=O)N2CCCCC2C(=O)OC(C(C)CC2CCC(O)C(OC)C2)CCC(C)C=C(C)C(O)C(OC)C(=O)C(C)CC(C)C=CC=CC=C1C (stereo not shown) [Compound 16, 32-desketorapamycin]",SKOV3 viability (%),[1]; conc 9.53674e-5 uM,103.5% and 99.3%
same,SKOV3 viability (%),[1]; conc 0.000190735 uM,92.3% and 95.8%
same,SKOV3 viability (%),[1]; conc 0.00038147 uM,95.4% and 93.0%
same,SKOV3 viability (%),[1]; conc 0.000762939 uM,86.5% and 80.1%
same,SKOV3 viability (%),[1]; conc 0.00152588 uM,73.2% and 83.0%
same,SKOV3 viability (%),[1]; conc 0.00305176 uM,64.2% and 71.1%
same,SKOV3 viability (%),[1]; conc 0.00610352 uM,65.5% and 65.6%
same,SKOV3 viability (%),[1]; conc 0.012207 uM,60.5% and 55.5%
same,SKOV3 viability (%),[1]; conc 0.0244141 uM,61.8% and 57.1%
same,SKOV3 viability (%),[1]; conc 0.0488281 uM,55.9% and 56.4%
same,SKOV3 viability (%),[1]; conc 0.0976562 uM,56.0% and 58.1%
same,SKOV3 viability (%),[1]; conc 0.195312 uM,52.7% and 56.6%
same,SKOV3 viability (%),[1]; conc 0.390625 uM,55.9% and 59.7%
same,SKOV3 viability (%),[1]; conc 0.78125 uM,59.7% and 56.2%
same,SKOV3 viability (%),[1]; conc 1.5625 uM,58.0% and 59.2%
same,SKOV3 viability (%),[1]; conc 3.125 uM,56.1% and 56.8%
same,SKOV3 viability (%),[1]; conc 12.5 uM,53.9% and 55.3%
same,SKOV3 viability (%),[1]; conc 25 uM,51.8% and 53.0%
same,SKOV3 viability (%),[1]; conc 50 uM,34.7% and 38.6%
same,viability at 72 h,"[2]; SKOV-3 cells (ovarian adenocarcinoma), SKOV-3 cells, 72 h, read-out: Plateau level of cell viability in the dose-response curve",~60%
same,"viability at 72 h, 9.53674e-05 uM","[2]; SKOV-3 cells (ovarian adenocarcinoma), conc 9.53674e-5 uM, raw replicate data, read-out: SKOV3 viability (%)",102%
same,"viability at 72 h, 0.000190735 uM","[2]; SKOV-3 cells (ovarian adenocarcinoma), conc 0.000190735 uM, raw replicate data, read-out: SKOV3 viability (%)",96.2%
same,"viability at 72 h, 0.00038147 uM","[2]; SKOV-3 cells (ovarian adenocarcinoma), conc 0.00038147 uM, raw replicate data, read-out: SKOV3 viability (%)",97.4%
same,"viability at 72 h, 0.000762939 uM","[2]; SKOV-3 cells (ovarian adenocarcinoma), conc 0.000762939 uM, raw replicate data, read-out: SKOV3 viability (%)",84.9%
same,"viability at 72 h, 0.00152588 uM","[2]; SKOV-3 cells (ovarian adenocarcinoma), conc 0.00152588 uM, raw replicate data, read-out: SKOV3 viability (%)",77.3%
same,"viability at 72 h, 0.00305176 uM","[2]; SKOV-3 cells (ovarian adenocarcinoma), conc 0.00305176 uM, raw replicate data, read-out: SKOV3 viability (%)",68.9%
same,"viability at 72 h, 0.00610352 uM","[2]; SKOV-3 cells (ovarian adenocarcinoma), conc 0.00610352 uM, raw replicate data, read-out: SKOV3 viability (%)",59%
same,"viability at 72 h, 0.012207 uM","[2]; SKOV-3 cells (ovarian adenocarcinoma), conc 0.012207 uM, raw replicate data, read-out: SKOV3 viability (%)",61.7%
same,"viability at 72 h, 0.0244141 uM","[2]; SKOV-3 cells (ovarian adenocarcinoma), conc 0.0244141 uM, raw replicate data, read-out: SKOV3 viability (%)",60%
same,"viability at 72 h, 0.0488281 uM","[2]; SKOV-3 cells (ovarian adenocarcinoma), conc 0.0488281 uM, raw replicate data, read-out: SKOV3 viability (%)",59.3%
same,"viability at 72 h, 0.0976562 uM","[2]; SKOV-3 cells (ovarian adenocarcinoma), conc 0.0976562 uM, raw replicate data, read-out: SKOV3 viability (%)",58.2%
same,"viability at 72 h, 0.195312 uM","[2]; SKOV-3 cells (ovarian adenocarcinoma), conc 0.195312 uM, raw replicate data, read-out: SKOV3 viability (%)",56.3%
same,"viability at 72 h, 0.390625 uM","[2]; SKOV-3 cells (ovarian adenocarcinoma), conc 0.390625 uM, raw replicate data, read-out: SKOV3 viability (%)",55.6%
same,"viability at 72 h, 12.5 uM","[2]; SKOV-3 cells (ovarian adenocarcinoma), conc 12.5 uM, raw replicate data, read-out: SKOV3 viability (%)",51.2%
same,"viability at 72 h, 25 uM","[2]; SKOV-3 cells (ovarian adenocarcinoma), conc 25 uM, raw replicate data, read-out: SKOV3 viability (%)",45.3%
same,"viability at 72 h, 50 uM","[2]; SKOV-3 cells (ovarian adenocarcinoma), conc 50 uM, raw replicate data, read-out: SKOV3 viability (%)",39.9%
same,"viability at 72 h, 0.78125 uM","[2]; SKOV-3 ovarian adenocarcinoma cells, conc 0.78125 uM, raw replicate data, read-out: SKOV3 viability (%)",57.3%
same,"viability at 72 h, 1.5625 uM","[2]; SKOV-3 ovarian adenocarcinoma cells, conc 1.5625 uM, raw replicate data, read-out: SKOV3 viability (%)",55%
same,"viability at 72 h, 3.125 uM","[2]; SKOV-3 ovarian adenocarcinoma cells, conc 3.125 uM, raw replicate data, read-out: SKOV3 viability (%)",57.8%
same,"viability at 72 h, 6.25 uM","[2]; SKOV-3 ovarian adenocarcinoma cells, conc 6.25 uM, raw replicate data, read-out: SKOV3 viability (%)",57%
same,"PPI-inducing (binding enhancing) activity between FKBP12 and mTOR compared with rapamycin (1), in words",FKBP12 and mTOR; Fluoppi,relatively weaker activities
same,EC50,"FKBP12 and mTOR; Fluoppi, HeLa cells, 1 h treatment, three independent biological replicates, read-out: EC50, induction of the formation of FKBP-mTOR complex",38 nM
same,Foci intensity,FKBP12 and mTOR; conc 9.53674e-5 uM,0.01132 and 0.0225 and 0.02884
same,Foci intensity,FKBP12 and mTOR; conc 0.000190735 uM,0.02797 and 0.01973 and 0.01419
same,Foci intensity,FKBP12 and mTOR; conc 0.00038147 uM,0.04487 and 0.01438 and 0.009614
same,Foci intensity,FKBP12 and mTOR; conc 0.000762939 uM,0.009583 and 0.01833 and 0.008004
same,Foci intensity,FKBP12 and mTOR; conc 0.00152588 uM,0.008334 and 0.01713 and 0.01044
same,Foci intensity,FKBP12 and mTOR; conc 0.00305176 uM,0.03307 and 0.01421 and 0.0165
same,Foci intensity,FKBP12 and mTOR; conc 0.00610352 uM,0.02498 and 0.01872 and 0.01859
same,Foci intensity,FKBP12 and mTOR; conc 0.012207 uM,0.05798 and 0.0563 and 0.05141
same,Foci intensity,FKBP12 and mTOR; conc 0.0244141 uM,0.05792 and 0.05718 and 0.05874
same,Foci intensity,FKBP12 and mTOR; conc 0.0488281 uM,0.2264 and 0.3107 and 0.3692
same,Foci intensity,FKBP12 and mTOR; conc 0.0976562 uM,0.3743 and 0.3092 and 0.3931
same,Foci intensity,FKBP12 and mTOR; conc 0.195312 uM,0.3634 and 0.4076 and 0.3212
same,Foci intensity,FKBP12 and mTOR; conc 0.390625 uM,0.4389 and 0.407 and 0.4337
same,Foci intensity,FKBP12 and mTOR; conc 0.78125 uM,0.46 and 0.2978 and 0.3103
same,Foci intensity,FKBP12 and mTOR; conc 1.5625 uM,0.3578 and 0.3604 and 0.4124
same,Foci intensity,FKBP12 and mTOR; conc 3.125 uM,0.4619 and 0.4071 and 0.4306
same,Foci intensity,FKBP12 and mTOR; conc 6.25 uM,0.3337 and 0.3579 and 0.3756
same,Foci intensity,FKBP12 and mTOR; conc 12.5 uM,0.4107 and 0.3542 and 0.4482
same,Foci intensity,FKBP12 and mTOR; conc 25 uM,0.3853 and 0.4351 and 0.4313
same,Foci intensity,FKBP12 and mTOR; conc 50 uM,0.3983 and 0.3475 and 0.366
same,viability at 72 h,"[3]; 72 h, read-out: Plateau level of cell viability in the dose-response curve",~25%
same,"viability at 72 h, 9.53674e-05 uM","[3]; conc 9.53674e-5 uM, raw data (replicates)",104%
same,"viability at 72 h, 0.000190735 uM","[3]; conc 0.000190735 uM, raw data (replicates)",86.9%
same,"viability at 72 h, 0.00038147 uM","[3]; conc 0.00038147 uM, raw data (replicates)",91.3%
same,"viability at 72 h, 0.000762939 uM","[3]; conc 0.000762939 uM, raw data (replicates)",67.7%
same,"viability at 72 h, 0.00152588 uM","[3]; conc 0.00152588 uM, raw data (replicates)",56.5%
same,"viability at 72 h, 0.00305176 uM","[3]; conc 0.00305176 uM, raw data (replicates)",40.9%
same,"viability at 72 h, 0.00610352 uM","[3]; conc 0.00610352 uM, raw data (replicates)",34.9%
same,"viability at 72 h, 0.012207 uM","[3]; conc 0.012207 uM, raw data (replicates)",28.9%
same,"viability at 72 h, 0.0244141 uM","[3]; conc 0.0244141 uM, raw data (replicates)",30.6%
same,"viability at 72 h, 0.0488281 uM","[3]; conc 0.0488281 uM, raw data (replicates)",25.7%
same,"viability at 72 h, 0.0976562 uM","[3]; conc 0.0976562 uM, raw data (replicates)",24%
same,"viability at 72 h, 0.195312 uM","[3]; conc 0.195312 uM, raw data (replicates)",24.3%
same,"viability at 72 h, 0.390625 uM","[3]; conc 0.390625 uM, raw data (replicates)",25.2%
same,"viability at 72 h, 0.78125 uM","[3]; conc 0.78125 uM, raw data (replicates)",22.1%
same,"viability at 72 h, 1.5625 uM","[3]; conc 1.5625 uM, raw data (replicates)",21.9%
same,"viability at 72 h, 3.125 uM","[3]; conc 3.125 uM, raw data (replicates)",20.3%
same,"viability at 72 h, 6.25 uM","[3]; conc 6.25 uM, raw data (replicates)",20.4%
same,"viability at 72 h, 12.5 uM","[3]; conc 12.5 uM, raw data (replicates)",11.9%
same,"viability at 72 h, 25 uM","[3]; conc 25 uM, raw data (replicates)",2%
same,"viability at 72 h, 50 uM","[3]; conc 50 uM, raw data (replicates)",0.248%
same,Jurkat viability (%),T lymphoma Jurkat cells; conc 9.53674e-5 uM,101.4% and 98.2%
same,Jurkat viability (%),T lymphoma Jurkat cells; conc 0.000190735 uM,92.4% and 84.6%
same,Jurkat viability (%),T lymphoma Jurkat cells; conc 0.00038147 uM,90.4% and 75.5%
same,Jurkat viability (%),T lymphoma Jurkat cells; conc 0.000762939 uM,69.2% and 63.8%
same,Jurkat viability (%),T lymphoma Jurkat cells; conc 0.00152588 uM,59.9% and 53.6%
same,Jurkat viability (%),T lymphoma Jurkat cells; conc 0.00305176 uM,41.7% and 44.0%
same,Jurkat viability (%),T lymphoma Jurkat cells; conc 0.00610352 uM,34.2% and 31.7%
same,Jurkat viability (%),T lymphoma Jurkat cells; conc 0.012207 uM,27.6% and 27.9%
same,Jurkat viability (%),T lymphoma Jurkat cells; conc 0.0244141 uM,27.8% and 26.9%
same,Jurkat viability (%),T lymphoma Jurkat cells; conc 0.0488281 uM,23.6% and 25.9%
same,Jurkat viability (%),T lymphoma Jurkat cells; conc 0.0976562 uM,24.4%
same,Jurkat viability (%),T lymphoma Jurkat cells; conc 0.195312 uM,26.3% and 22.8%
same,Jurkat viability (%),T lymphoma Jurkat cells; conc 0.390625 uM,23.3%
same,Jurkat viability (%),T lymphoma Jurkat cells; conc 0.78125 uM,22.7% and 23.1%
same,Jurkat viability (%),T lymphoma Jurkat cells; conc 1.5625 uM,22.0%
same,Jurkat viability (%),T lymphoma Jurkat cells; conc 3.125 uM,23.1% and 21.1%
same,Jurkat viability (%),T lymphoma Jurkat cells; conc 6.25 uM,20.5% and 21.0%
same,Jurkat viability (%),T lymphoma Jurkat cells; conc 12.5 uM,14.7% and 14.4%
same,Jurkat viability (%),T lymphoma Jurkat cells; conc 25 uM,2.4% and 2.3%
same,Jurkat viability (%),T lymphoma Jurkat cells; conc 50 uM,0.267% and 0.233%
